Assay results from ChEMBL document CHEMBL1201862, “PubChem BioAssay data set” (2004).
Calls of active or inactive are those of the source.

What was measured:
[1] = target: Tyrosyl-DNA phosphodiesterase 2 (Homo sapiens, UniProt O95551); assay: human TDP2 enzyme inhibitors, dose response, biochemical, epi absorbance, IC50 (AID 743297)
Caspase-7 = Caspase-7 (Homo sapiens, UniProt P55210); assay: human caspase-7 inhibitors, dose response, selectivity assay for caspase-6 inhibitor project, biochemical, DEVD-R110 fluorescence, cherry-pick (AID 743295)
Caspase-3 = target: T1, Caspase-3 (Homo sapiens, UniProt P42574); assay: caspase-3 enzyme inhibitors, selectivity check, dose response, selectivity assay for caspase-6 allosteric inhibitor project, biochemical, fluorescence, cherry-picked samples (AID 743291)
T1 sequence (P42574 whole entry): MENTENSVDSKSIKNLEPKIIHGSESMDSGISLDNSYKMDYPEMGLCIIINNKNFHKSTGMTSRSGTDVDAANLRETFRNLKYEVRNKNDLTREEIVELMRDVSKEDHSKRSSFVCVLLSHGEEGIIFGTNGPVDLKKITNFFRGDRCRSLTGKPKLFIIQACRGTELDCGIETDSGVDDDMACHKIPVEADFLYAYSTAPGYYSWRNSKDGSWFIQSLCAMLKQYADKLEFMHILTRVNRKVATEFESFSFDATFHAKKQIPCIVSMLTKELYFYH

Caspase-6 = target: T2, Caspase-6 (Homo sapiens, UniProt P55212); assay: human caspase-6 inhibitors, dose response, biochemical, VEID-R110 fluorescence, cherry-pick (AID 720632)
T2 sequence (P55212 whole entry): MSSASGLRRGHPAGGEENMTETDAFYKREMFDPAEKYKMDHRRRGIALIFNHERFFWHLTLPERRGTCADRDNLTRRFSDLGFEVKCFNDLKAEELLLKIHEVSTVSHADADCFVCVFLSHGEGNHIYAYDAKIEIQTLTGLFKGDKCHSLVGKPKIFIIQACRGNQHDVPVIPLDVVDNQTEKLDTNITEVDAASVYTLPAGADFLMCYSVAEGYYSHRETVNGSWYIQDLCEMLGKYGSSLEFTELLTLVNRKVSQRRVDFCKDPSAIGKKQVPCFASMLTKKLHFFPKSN

Caspase-8 = Caspase-8 (Homo sapiens, UniProt Q14790); assay: caspase-8 inhibition counter-screen, dose response, selectivity assay for caspase-6 inhibitor project, biochemical, Z-IETD-R110 fluorescence, cherry-picked samples (AID 743294)
Caspase-9 = Caspase-9 (Homo sapiens, UniProt P55211); assay: caspase-9 enzyme inhibition, dose response, selectivity assay for caspase-6 inhibitor project, biochemical, fluorescence, plate reader, cherry-picked samples (AID 743293)
SUMO-activating enzyme [2] = target: T3, SUMO-activating enzyme (Homo sapiens, UniProt Q9UBT2); assay: SUMOylation inhibitor hit validation, confirmation, SUMOylation inhibitor project, biochemical, AlphaScreen (AID 2018); assay type: functional
Hexokinase HKDC1 = Hexokinase HKDC1 (Homo sapiens, UniProt Q2TB90); assay: HKDC1 hexokinase inhibitors, dose response, biochemical, W721R variant (AID 504729); assay type: functional
[3] = target: T4, Histone-lysine N-methyltransferase NSD2 (Homo sapiens, UniProt O96028); assay type: biochemical
T4 sequence (O96028 whole entry): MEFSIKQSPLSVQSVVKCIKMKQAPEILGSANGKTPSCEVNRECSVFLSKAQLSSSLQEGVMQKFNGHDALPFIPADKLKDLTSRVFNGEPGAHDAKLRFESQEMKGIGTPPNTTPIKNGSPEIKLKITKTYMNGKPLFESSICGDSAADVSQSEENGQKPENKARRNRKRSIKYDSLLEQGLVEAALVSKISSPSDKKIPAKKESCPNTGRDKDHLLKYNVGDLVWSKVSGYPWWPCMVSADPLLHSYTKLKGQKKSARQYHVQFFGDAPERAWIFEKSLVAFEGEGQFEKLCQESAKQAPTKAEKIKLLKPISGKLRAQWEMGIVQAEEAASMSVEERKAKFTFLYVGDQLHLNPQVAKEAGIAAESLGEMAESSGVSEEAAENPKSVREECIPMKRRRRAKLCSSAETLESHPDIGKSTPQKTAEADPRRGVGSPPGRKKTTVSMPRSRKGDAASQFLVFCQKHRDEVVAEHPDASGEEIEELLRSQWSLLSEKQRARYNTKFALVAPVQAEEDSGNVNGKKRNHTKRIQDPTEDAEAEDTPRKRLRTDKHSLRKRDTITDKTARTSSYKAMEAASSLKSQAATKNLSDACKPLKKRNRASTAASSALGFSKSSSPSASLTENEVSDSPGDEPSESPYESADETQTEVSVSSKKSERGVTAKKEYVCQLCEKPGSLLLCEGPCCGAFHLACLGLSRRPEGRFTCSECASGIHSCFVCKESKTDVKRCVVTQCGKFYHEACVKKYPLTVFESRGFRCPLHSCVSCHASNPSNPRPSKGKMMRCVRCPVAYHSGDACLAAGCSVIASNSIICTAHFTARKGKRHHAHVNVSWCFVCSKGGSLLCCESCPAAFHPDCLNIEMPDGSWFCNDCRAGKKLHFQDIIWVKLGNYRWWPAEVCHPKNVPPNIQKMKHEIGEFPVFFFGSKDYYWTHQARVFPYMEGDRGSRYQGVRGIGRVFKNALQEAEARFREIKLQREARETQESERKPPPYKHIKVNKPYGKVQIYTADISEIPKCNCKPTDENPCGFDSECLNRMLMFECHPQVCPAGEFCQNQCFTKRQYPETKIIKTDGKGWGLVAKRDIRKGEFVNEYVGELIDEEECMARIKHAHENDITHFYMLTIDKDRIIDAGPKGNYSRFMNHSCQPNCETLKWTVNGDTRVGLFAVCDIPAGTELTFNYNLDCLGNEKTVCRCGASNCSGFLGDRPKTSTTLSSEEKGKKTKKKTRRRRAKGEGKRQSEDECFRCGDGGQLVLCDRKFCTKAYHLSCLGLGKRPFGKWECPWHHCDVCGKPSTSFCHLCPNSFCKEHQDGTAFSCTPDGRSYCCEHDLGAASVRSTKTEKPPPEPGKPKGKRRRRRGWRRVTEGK

SUMO-activating enzyme [4] = target: T3, SUMO-activating enzyme; assay: inhibitors of in vitro SUMOylation cascade, primary screen, biochemical, HTRF, uHTS (AID 2006); assay type: protein-complex assay
[5] = target: Polyadenylate-binding protein 1 (Homo sapiens, UniProt P11940); assay: PABP1 MLLE–PAM2 interaction inhibitors, dose response, miRNA deadenylation inhibitor project, biochemical, fluorescence polarization, Cy5-PAM2 peptide, secondary (AID 602260); assay type: functional; settings: read-out: IC50_Mean
Vero = Vero cell cytotoxicity, cytotoxicity control for flavivirus capping enzyme inhibitors (AID 588742); assay type: functional; settings: Chlorocebus sabaeus

T3 sequence (Q9UBE0 whole entry): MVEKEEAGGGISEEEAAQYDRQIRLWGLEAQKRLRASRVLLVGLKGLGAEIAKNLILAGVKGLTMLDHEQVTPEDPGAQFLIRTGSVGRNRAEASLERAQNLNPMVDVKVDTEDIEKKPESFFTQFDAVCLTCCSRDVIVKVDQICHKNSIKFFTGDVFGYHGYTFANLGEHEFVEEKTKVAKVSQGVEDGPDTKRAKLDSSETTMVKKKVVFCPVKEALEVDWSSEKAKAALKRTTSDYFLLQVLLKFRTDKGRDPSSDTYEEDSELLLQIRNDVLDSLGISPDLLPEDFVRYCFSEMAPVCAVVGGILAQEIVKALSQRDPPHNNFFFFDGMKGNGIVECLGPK
T3 sequence (Q9UBT2 whole entry): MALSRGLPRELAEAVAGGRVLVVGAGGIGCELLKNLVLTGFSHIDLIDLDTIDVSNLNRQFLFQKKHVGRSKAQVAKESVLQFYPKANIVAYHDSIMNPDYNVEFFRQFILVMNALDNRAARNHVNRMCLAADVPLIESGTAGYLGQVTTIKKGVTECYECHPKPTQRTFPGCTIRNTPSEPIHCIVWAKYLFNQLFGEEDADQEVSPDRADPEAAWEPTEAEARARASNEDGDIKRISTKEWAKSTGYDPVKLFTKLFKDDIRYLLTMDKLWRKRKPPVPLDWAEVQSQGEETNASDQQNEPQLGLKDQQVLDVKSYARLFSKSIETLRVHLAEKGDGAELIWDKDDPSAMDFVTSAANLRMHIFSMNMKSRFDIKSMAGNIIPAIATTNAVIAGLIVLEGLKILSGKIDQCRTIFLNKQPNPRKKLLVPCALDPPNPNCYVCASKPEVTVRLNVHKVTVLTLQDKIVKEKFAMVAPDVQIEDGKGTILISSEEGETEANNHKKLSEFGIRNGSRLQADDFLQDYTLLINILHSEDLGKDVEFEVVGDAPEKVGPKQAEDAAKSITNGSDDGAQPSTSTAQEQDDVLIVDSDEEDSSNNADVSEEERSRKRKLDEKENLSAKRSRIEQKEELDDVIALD
Polyadenylate-binding protein 1, sequence (P11940 whole entry): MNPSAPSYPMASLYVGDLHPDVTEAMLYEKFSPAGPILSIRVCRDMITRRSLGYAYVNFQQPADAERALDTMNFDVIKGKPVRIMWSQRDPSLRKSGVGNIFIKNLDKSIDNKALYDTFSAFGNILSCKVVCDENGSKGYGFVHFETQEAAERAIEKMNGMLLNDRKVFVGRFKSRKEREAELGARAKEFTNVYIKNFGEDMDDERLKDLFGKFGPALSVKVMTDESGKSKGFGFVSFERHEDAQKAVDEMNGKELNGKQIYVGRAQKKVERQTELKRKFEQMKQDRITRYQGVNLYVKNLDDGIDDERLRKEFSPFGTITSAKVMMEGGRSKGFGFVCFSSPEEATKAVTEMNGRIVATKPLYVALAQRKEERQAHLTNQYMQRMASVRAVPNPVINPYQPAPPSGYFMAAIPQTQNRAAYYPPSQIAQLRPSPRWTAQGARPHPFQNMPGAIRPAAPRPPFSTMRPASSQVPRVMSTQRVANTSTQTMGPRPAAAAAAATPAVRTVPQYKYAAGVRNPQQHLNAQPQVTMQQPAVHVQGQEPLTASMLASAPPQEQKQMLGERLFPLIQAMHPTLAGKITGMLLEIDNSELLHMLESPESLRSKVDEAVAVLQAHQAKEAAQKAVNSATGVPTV
Caspase-9, sequence (P55211 1-315 limits assumed): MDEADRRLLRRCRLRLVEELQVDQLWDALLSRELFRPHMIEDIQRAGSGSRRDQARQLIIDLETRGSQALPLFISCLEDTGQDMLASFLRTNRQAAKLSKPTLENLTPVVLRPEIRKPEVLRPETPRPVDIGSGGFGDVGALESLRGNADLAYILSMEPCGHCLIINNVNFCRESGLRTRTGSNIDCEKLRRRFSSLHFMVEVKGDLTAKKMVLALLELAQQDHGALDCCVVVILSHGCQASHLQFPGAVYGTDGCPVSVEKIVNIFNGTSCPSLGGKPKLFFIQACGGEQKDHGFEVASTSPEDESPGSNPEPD
Caspase-9, sequence (P55211 331-416 limits assumed): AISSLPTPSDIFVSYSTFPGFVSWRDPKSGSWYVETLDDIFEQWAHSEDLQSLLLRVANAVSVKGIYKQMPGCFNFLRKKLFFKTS
Tyrosyl-DNA phosphodiesterase 2, sequence (O95551 whole entry): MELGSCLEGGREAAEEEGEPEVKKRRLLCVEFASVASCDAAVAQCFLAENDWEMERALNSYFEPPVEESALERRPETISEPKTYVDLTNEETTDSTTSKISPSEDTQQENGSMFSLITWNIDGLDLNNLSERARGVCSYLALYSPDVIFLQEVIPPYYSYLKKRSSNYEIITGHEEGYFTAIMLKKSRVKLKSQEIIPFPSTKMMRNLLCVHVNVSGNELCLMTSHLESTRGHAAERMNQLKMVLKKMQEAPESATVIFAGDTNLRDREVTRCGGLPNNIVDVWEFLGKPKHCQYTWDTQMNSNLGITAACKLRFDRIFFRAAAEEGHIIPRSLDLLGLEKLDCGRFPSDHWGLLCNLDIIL
Caspase-8, sequence (Q14790 217-374 limits assumed): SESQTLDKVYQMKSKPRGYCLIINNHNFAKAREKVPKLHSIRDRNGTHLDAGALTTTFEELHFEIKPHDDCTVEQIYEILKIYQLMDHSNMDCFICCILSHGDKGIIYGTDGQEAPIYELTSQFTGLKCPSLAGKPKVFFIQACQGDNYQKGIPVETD
Caspase-8, sequence (Q14790 385-479 limits assumed): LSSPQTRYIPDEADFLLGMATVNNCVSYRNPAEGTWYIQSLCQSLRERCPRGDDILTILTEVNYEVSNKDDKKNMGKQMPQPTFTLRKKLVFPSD
Hexokinase HKDC1, sequence (Q2TB90 whole entry): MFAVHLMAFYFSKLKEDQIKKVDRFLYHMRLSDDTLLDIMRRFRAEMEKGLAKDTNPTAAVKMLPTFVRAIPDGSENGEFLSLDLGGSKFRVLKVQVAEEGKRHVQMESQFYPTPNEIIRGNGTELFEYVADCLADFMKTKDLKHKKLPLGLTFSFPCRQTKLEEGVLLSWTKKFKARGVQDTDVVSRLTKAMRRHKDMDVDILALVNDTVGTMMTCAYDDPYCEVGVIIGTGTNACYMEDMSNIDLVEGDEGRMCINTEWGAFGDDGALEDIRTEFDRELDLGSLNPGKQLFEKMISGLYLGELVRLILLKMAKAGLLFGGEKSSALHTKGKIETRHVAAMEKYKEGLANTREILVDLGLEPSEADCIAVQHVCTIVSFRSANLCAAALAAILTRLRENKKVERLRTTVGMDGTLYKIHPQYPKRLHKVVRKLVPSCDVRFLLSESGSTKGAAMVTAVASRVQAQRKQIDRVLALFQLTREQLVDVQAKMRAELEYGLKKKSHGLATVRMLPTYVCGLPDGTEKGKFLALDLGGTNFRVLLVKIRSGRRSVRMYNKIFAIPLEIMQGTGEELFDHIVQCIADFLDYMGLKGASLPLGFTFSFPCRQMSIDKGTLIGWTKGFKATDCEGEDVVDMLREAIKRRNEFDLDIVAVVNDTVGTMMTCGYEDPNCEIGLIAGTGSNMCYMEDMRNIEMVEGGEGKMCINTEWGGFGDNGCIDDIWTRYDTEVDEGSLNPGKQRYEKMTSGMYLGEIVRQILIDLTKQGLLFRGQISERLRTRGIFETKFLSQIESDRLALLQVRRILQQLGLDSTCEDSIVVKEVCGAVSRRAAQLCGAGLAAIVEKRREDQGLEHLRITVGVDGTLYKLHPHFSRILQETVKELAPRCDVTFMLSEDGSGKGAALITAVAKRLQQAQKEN
Caspase-7, sequence (P55210 24-198 limits assumed): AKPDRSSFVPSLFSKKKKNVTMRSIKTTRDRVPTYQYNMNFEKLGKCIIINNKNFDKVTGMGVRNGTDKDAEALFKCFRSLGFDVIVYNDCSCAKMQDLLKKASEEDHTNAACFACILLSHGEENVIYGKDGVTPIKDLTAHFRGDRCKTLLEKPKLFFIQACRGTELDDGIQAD
Caspase-7, sequence (P55210 207-303 limits assumed): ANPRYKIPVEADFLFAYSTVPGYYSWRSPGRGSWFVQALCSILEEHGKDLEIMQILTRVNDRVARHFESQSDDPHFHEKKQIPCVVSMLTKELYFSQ

**Q.** Which IC50 [1] does the source give for `COc1cc2c(cc1OC)-c1c(OC)c(OC)cc3c1[C@H](C2)N(C)CC3` here?
**A.** Its IC50 is 6.22 µM (active).

**Q.** And the AC50 (Caspase-7)?
**A.** Its AC50 is 1.77 µM (active).

**Q.** What about the AC50 (Caspase-3) of the same compound?
**A.** Its AC50 is 6.27 µM (active).

**Q.** And the AC50 (Caspase-6)?
**A.** The AC50 was 0.926 µM (active).

**Q.** What about the AC50 (Caspase-8) of the same compound?
**A.** Its AC50 is 48.1 µM (active).

**Q.** And the AC50 (Caspase-9)?
**A.** Its AC50 is 39.9 µM (active).

**Q.** How did the IC50 (SUMO-activating enzyme [2]) turn out when `O=C1C(Cl)=C(N2CCC(C(=O)O)CC2)C(=O)c2ccccc21` was run?
**A.** The IC50 was 5.75 µM (active).

**Q.** And the IC50 (Hexokinase HKDC1)?
**A.** Its IC50 is 8.29 µM (active).

**Q.** And the AC50 [3]?
**A.** The AC50 was 1.46 µM (active).

**Q.** And the IC50 (SUMO-activating enzyme [4])?
**A.** Its IC50 is 24 µM (active).

**Q.** `COC1=C(c2ccccc2)C(=O)c2ccccc2C1=O` was tested. Which AC50 [3] did it give?
**A.** The AC50 was > 20 µM (inactive).

**Q.** What about the IC50 [5] of the same compound?
**A.** Its IC50 is > 66 µM (inactive).

**Q.** What about the CC50 (Vero) of the same compound?
**A.** The CC50 was 17.8 µM (active).
